Test results reported in patent publication EP0598011B1, “ECDYSTEROID DEPENDENT REGULATION OF GENES IN MAMMALIAN CELLS” (GENENTECH, INC., priority 1991, dated 1993).

Target: T1, DHR23α (Drosophila melanogaster, UniProt P34021)
T1 construct: To isolate the full-length DHR23α clones; expressed in transfected cells; host or cells: human 293 cells
T1 sequence (P34021 1-878): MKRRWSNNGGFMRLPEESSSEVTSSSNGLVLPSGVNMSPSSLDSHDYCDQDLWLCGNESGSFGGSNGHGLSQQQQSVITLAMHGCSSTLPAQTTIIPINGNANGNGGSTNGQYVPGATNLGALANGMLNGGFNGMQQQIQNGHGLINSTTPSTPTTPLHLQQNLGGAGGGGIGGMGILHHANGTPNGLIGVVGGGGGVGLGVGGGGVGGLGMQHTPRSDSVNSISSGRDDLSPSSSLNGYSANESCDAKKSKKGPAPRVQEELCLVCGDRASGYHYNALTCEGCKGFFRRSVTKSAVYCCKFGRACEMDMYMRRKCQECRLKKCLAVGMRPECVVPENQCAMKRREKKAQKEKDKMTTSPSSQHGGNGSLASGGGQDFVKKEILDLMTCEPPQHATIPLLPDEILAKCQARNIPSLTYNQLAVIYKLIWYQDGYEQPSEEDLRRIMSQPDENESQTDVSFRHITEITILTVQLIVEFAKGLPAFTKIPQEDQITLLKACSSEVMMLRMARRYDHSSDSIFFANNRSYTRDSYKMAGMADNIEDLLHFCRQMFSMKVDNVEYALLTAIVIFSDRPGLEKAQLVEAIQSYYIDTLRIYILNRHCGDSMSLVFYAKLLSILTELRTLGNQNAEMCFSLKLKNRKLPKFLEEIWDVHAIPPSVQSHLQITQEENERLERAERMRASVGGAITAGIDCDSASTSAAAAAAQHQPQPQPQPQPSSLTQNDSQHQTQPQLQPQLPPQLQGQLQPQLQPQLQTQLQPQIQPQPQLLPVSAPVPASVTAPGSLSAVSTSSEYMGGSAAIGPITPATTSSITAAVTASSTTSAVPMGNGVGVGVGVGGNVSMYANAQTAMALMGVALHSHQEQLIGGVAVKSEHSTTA
T1 sequence (P19793 1-462 partner): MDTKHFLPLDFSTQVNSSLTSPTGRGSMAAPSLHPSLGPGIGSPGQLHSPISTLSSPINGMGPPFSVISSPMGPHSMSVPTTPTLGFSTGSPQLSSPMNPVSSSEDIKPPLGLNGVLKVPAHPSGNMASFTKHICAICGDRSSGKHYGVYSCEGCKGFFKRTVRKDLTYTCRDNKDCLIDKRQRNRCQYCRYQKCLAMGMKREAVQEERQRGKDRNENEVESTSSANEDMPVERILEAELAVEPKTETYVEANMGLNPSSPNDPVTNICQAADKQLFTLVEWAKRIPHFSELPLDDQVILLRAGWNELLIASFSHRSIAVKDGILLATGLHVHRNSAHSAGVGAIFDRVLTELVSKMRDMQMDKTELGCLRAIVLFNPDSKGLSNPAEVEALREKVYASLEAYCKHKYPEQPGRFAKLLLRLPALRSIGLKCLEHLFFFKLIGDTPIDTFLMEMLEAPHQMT
Assay: DHR23α transactivation of EcRE (Ec4M-77CO) CAT reporter in transfected human 293 cells
Type: cell-based
Details: pRSV.DHR23α + pEc4M-77CO (EcRE) CAT reporter, ligand 1 µM, 48 hrs
Description: Figure. 2. […] Human 293 cells were cotransfected with 2.5 µg of the expression plasmid pRSV.DHR23α or the parental expression plasmid pRSV (Control) and 0.5 µgs of the reporter plasmid pEc4M-77CO (EcRE) or pG4M-77CO (GRE). As a control for transfection efficiency, 0.5 µgs of the control plasmid pRSV.hGH was included in the transfection mixture. After transfection, cells were treated without (-) or with alpha-ecdysone (alpha), 20-OH ecdysone (20-OH), polypodine B (ppB), ponasterone A (ponA) or muristeroine A (murA). CAT extracts were harvested 48 hrs after transfection and assayed. The values were normalized to the expression of hGH and the average values of three independent experiments are shown. The "fold induction" represents the level of expression of the reporter gene in cells incubated with hormone divided by the expression of that reporter gene in extracts from cells incubated in the absence of added ligand.
I determined whether DHR23α could function in mammalian cells treated with ecdysteroids to enhance the transcription of a reporter gene containing EcREs linked to the murine mammary tumor virus (MTV) promoter and chloramphenicol acetyltransferase (CAT) gene. Human 293 cells were cotransfected with an RSV-based expression vector that encodes DHR23a and the reporter gene Ec4M-77CO that contains 4 copies of an ecdysone response element (EcRE) from the Drosophila HSP27 promoter (G. Riddihough and H. R. B. Pelham, EMBO J. 6, 3729 [1987]) linked to an MTV promoter-CAT construct.
Human 293 cells were cotransfected with 2.5 µg of the expression plasmid pRSV.DHR23α or the parental expression plasmid pRSV (Control) and 0.5 µgs of the reporter plasmid pEc4M-77CO (EcRE) or pG4M-77CO (GRE). As a control for transfection efficiency, 0.5 µgs of the control plasmid pRSV.hGH was included in the transfection mixture. After transfection, cells were treated without (-) or with alpha-ecdysone (alpha), 20-OH ecdysone (20-OH), polypodine B (ppB), ponasterone A (ponA) or muristeroine A (murA). All candidate ligands were added at a concentration of 1 µM. CAT extracts were harvested 48 hrs after transfection, and assays were performed as described (D. R. Cavener, Nucl. Acids Res. 15, 1353-1361 [1987]). The values were normalized to the expression of hGH and the average values of three independent experiments are shown in Figure 2. The "fold induction" represents the level of expression of the reporter gene in cells incubated with hormone divided by the expression of that reporter gene in extracts from cells incubated in the absence of added ligand.
Cells were transfected with the DHR23α expression vector and Ec4M-77CO reporter gene and treated without (-) or with the following hormones (1 µM): muristerone A (mur A) dexamethasone (Dex) 17β-estradiol (E2), aldosterone (Aldo), corticosterone (Cort) hydroxycorticosterone (OH-Cort) thyroid hormone (T3), promegestone (Promeg) or 1,25-dihydroxy vitamin D3 (VD3). Reporter gene activity was determined as described above for Figure 2.

CC(C)CCC(O)[C@](C)(O)[C@H]1CC[C@@]2(O)C3=CC(=O)C4(O)CC(O)C(O)C[C@]4(C)[C@H]3C(O)C[C@]12C (some centres unmarked) [muristerone A, 2,3,5,11,14,20,22-Heptahydroxy-7-cholesten-6-one]
agonist for DHR23α in mammalian cells (expression of the reporter gene): markedly increased | agonist for DHR23α in mammalian cells (expression of the reporter gene) (listed as muristerone): strong agonist
